Source: PMC7180948, “New Insights into 4-Anilinoquinazolines as Inhibitors of Cardiac Troponin I–Interacting Kinase (TNNi3K)” (Molecules, 2020)

What was measured:
Test in all cases: biochemical
Set-up in all cases: KINOMEscan competition binding panel (Eurofins DiscoverX), single concentration, % inhibition
Details in all cases: read-out: 7 at 1 µM % inhibition
[1] = target: T1, ABL1(F317L)-phosphorylated (Homo sapiens, UniProt P00519, F317L)
T1 construct: phosphorylated
How it was run: (§1)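 Kinome-wide profiling (KINOMEscan, >400 human kinases) was run at 1 µM compound.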

ACVR1 = ACVR1 (Homo sapiens, UniProt Q04771)
How it was run: as §1

AMPK-alpha1 = target: T2, AMPK-alpha1 (Homo sapiens, UniProt Q13131)
T2 construct: gene PRKAA1
How it was run: as §1

ARK5 = target: T3, ARK5 (Homo sapiens, UniProt O60285)
T3 construct: gene NUAK1
T3 sequence (O60285 whole entry): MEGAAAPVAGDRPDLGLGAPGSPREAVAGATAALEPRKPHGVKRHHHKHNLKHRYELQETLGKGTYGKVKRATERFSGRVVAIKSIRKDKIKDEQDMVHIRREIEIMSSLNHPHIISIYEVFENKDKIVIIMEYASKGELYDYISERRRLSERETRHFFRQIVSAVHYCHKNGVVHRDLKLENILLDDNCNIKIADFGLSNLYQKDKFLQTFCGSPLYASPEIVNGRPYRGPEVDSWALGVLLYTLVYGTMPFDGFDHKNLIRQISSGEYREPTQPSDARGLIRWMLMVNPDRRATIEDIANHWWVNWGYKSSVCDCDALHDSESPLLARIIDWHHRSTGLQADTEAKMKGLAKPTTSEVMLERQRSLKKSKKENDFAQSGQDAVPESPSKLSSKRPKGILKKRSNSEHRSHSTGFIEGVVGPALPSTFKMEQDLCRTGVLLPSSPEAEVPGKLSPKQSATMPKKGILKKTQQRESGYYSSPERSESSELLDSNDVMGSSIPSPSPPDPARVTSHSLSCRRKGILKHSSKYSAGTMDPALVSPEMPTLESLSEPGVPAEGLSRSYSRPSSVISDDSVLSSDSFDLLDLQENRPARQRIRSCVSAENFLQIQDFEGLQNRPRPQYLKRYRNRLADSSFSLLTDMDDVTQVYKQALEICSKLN
How it was run: as §1

EGFR(G719C) = EGFR(G719C) (Homo sapiens, UniProt P00533, G719C)
How it was run: as §1

EPHB1 = EPHB1 (Homo sapiens, UniProt P54762)
How it was run: as §1

ERK8 = target: T4, ERK8 (Homo sapiens, UniProt Q8TD08)
T4 construct: gene MAPK15
How it was run: as §1

FLT1 = FLT1 (Homo sapiens, UniProt P17948)
How it was run: as §1

FLT3(D835Y) = FLT3(D835Y) (Homo sapiens, UniProt P36888, D835Y)
How it was run: as §1

FLT3(ITD) = FLT3(ITD) (Homo sapiens, UniProt P36888, ITD)
How it was run: as §1

IKK-beta = target: T5, IKK-beta (Homo sapiens, UniProt O14920)
T5 construct: gene IKBKB
How it was run: as §1

JNK1 = target: T6, JNK1 (Homo sapiens, UniProt P45983)
T6 construct: gene MAPK8
How it was run: as §1

MAPKAPK2 = MAPKAPK2 (Homo sapiens, UniProt P49137)
How it was run: as §1

MEK4 = target: T7, MEK4 (Homo sapiens, UniProt P45985)
T7 construct: gene MAP2K4
How it was run: as §1

MET(M1250T) = MET(M1250T) (Homo sapiens, UniProt P08581, M1250T)
How it was run: as §1

MRCKB = target: T8, MRCKB (Homo sapiens, UniProt Q9Y5S2)
T8 construct: gene CDC42BPB
How it was run: as §1

PAK1 = PAK1 (Homo sapiens, UniProt Q13153)
How it was run: as §1

PIK3CA = PIK3CA (Homo sapiens, UniProt P42336)
How it was run: as §1

PIK3CD = PIK3CD (Homo sapiens, UniProt O00329)
How it was run: as §1

PRKD3 = PRKD3 (Homo sapiens, UniProt O94806)
How it was run: as §1

RET = RET (Homo sapiens, UniProt P07949)
Chain of RET (P07949 whole entry): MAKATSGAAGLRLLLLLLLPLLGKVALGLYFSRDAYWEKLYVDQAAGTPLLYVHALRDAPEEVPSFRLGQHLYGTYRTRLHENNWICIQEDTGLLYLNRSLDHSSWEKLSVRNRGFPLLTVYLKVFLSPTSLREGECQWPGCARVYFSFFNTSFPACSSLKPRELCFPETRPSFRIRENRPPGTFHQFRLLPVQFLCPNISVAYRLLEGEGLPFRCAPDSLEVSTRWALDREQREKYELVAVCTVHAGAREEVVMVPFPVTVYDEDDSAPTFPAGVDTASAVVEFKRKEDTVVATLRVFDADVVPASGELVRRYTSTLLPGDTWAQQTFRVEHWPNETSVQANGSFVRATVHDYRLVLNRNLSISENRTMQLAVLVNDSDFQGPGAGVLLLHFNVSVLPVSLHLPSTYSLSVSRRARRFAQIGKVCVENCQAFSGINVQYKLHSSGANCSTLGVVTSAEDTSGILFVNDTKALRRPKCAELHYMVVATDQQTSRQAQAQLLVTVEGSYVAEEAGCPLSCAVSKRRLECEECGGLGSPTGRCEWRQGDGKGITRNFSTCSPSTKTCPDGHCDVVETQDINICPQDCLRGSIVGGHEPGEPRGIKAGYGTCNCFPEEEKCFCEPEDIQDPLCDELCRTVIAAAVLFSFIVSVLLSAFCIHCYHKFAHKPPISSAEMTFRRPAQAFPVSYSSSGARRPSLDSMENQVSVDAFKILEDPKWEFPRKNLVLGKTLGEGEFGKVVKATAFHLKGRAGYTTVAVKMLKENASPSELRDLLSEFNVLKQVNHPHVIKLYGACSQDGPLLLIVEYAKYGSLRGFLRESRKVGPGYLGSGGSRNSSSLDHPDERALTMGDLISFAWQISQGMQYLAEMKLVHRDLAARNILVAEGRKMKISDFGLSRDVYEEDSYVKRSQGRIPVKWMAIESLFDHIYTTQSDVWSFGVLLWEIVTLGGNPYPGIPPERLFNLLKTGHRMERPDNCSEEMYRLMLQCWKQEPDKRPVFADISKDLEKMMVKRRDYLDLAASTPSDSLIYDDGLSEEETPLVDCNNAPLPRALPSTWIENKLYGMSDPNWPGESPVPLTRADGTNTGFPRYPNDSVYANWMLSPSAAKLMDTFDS
How it was run: as §1

TBK1 = TBK1 (Homo sapiens, UniProt Q9UHD2)
Chain of TBK1 (Q9UHD2 whole entry): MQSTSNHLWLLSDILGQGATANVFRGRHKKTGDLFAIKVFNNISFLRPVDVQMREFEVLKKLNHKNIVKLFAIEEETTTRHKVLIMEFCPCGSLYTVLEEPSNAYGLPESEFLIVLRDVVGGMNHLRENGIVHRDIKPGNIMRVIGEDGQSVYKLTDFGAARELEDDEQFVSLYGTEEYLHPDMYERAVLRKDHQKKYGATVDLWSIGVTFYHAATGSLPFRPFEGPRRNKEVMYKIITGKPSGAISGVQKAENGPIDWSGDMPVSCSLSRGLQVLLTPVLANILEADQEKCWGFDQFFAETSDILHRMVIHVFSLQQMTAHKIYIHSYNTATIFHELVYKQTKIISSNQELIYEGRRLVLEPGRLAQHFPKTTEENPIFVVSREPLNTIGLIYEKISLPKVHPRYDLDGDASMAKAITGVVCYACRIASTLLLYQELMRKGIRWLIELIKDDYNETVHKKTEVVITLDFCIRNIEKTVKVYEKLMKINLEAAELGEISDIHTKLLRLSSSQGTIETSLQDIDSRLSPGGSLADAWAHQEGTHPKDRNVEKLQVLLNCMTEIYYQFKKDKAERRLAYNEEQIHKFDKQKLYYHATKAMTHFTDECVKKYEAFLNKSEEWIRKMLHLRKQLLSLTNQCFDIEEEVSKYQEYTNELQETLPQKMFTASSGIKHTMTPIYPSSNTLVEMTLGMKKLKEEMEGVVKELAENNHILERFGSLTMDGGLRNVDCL
How it was run: as §1

TRKC = target: T9, TRKC (Homo sapiens, UniProt Q16288)
T9 construct: gene NTRK3
T9 sequence (Q16288 whole entry): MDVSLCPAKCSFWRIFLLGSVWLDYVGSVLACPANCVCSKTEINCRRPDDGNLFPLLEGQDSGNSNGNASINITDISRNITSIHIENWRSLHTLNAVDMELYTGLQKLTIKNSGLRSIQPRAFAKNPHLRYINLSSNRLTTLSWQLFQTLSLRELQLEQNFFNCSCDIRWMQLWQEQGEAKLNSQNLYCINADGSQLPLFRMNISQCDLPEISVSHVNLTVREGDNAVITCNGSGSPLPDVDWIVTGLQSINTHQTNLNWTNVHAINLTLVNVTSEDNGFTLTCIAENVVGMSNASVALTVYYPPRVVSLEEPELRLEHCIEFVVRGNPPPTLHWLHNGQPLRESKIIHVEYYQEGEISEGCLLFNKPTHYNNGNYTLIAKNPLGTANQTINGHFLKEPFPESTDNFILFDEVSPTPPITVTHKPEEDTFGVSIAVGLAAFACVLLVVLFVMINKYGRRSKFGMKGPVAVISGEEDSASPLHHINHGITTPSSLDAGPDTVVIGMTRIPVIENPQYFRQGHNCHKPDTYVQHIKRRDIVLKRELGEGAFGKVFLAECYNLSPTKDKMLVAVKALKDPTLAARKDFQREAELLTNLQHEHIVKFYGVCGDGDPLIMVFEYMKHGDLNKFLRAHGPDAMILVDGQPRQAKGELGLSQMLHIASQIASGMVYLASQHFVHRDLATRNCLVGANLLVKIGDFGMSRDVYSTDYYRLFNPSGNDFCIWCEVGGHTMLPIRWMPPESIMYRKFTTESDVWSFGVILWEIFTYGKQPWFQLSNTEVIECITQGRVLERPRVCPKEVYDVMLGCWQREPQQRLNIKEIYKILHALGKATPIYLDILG
How it was run: as §1

YSK1 = target: T10, YSK1 (Homo sapiens, UniProt O00506)
T10 construct: gene STK25
T10 sequence (O00506 whole entry): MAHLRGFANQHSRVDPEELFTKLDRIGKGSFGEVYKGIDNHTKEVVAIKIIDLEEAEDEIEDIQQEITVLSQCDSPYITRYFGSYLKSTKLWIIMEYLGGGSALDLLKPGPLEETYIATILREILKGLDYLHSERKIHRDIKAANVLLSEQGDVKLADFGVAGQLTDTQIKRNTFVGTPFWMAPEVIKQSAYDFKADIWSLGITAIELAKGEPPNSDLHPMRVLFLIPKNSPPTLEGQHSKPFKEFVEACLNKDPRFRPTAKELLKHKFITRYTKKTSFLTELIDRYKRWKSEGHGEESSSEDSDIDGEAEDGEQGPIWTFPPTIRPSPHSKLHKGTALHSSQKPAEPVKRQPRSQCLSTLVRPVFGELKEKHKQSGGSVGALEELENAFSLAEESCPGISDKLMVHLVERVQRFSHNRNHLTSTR
How it was run: as §1

T1 sequence (P00519 whole entry F317L): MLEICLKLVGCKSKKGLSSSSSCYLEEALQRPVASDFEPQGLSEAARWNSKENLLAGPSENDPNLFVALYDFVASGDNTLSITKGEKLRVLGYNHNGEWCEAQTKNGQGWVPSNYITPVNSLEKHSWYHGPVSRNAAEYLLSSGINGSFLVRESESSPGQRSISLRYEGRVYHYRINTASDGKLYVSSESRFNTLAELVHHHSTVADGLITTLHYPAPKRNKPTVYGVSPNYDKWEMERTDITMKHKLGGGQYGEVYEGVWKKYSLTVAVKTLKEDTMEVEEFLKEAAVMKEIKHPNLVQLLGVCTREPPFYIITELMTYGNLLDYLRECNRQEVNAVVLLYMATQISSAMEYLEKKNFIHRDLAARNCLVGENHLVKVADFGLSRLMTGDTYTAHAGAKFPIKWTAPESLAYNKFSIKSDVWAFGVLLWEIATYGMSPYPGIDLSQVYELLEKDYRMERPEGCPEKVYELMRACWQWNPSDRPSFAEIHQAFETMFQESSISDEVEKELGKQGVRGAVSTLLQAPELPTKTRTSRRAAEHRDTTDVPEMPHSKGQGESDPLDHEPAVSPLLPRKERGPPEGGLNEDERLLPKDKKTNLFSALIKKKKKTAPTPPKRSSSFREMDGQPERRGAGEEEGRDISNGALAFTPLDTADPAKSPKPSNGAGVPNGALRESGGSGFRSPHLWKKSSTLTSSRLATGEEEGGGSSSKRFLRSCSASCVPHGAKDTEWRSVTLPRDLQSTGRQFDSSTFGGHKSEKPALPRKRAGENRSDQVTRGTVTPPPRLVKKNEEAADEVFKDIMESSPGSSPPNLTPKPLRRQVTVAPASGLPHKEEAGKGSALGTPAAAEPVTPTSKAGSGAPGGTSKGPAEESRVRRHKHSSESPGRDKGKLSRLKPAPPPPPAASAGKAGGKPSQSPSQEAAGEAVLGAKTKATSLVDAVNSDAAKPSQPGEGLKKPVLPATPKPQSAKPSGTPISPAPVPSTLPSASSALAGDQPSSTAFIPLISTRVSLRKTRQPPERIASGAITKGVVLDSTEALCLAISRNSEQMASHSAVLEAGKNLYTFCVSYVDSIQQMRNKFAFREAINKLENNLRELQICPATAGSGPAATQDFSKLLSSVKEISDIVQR

`CNS(=O)(=O)c1ccc(N(C)C)c(Nc2ncnc3cc(OC)c(OC)cc23)c1` [compound 7, 3-((6,7-dimethoxyquinazolin-4-yl)amino)-4-(dimethylamino)-N-methylbenzenesulfonamide] was tested, and the inhibition at 1 µM [1] was 0%, the inhibition at 1 µM (ACVR1) was 0% and the inhibition at 1 µM (AMPK-alpha1) was 0%. The inhibition at 1 µM (ARK5) was 0%, the inhibition at 1 µM (EGFR(G719C)) was 0% and the inhibition at 1 µM (EPHB1) was 0%. For the same compound, the inhibition at 1 µM (ERK8) was 13%, the inhibition at 1 µM (FLT1) was 0% and the inhibition at 1 µM (FLT3(D835Y)) was 13%. For the same compound, the inhibition at 1 µM (FLT3(ITD)) was 0%, the inhibition at 1 µM (IKK-beta) was 68% and the inhibition at 1 µM (JNK1) was 8%. For the same compound, the inhibition at 1 µM (MAPKAPK2) was 0%, the inhibition at 1 µM (MEK4) was 37% and the inhibition at 1 µM (MET(M1250T)) was 0%. The inhibition at 1 µM (MRCKB) was 0%, the inhibition at 1 µM (PAK1) was 0% and the inhibition at 1 µM (PIK3CA) was 51%. The inhibition at 1 µM (PIK3CD) was 61%, the inhibition at 1 µM (PRKD3) was 7% and the inhibition at 1 µM (RET) was 11%. It also gave an inhibition at 1 µM (TBK1) of 0%, an inhibition at 1 µM (TRKC) of 0% and an inhibition at 1 µM (YSK1) of 5%.
